In the test the test system is U266 cells. In words: Immunofluorescence analysis of microtubules (anti-α-tubulin). The class given is cell-based, human. The following applies: 5 to 7.5 µM for 24 h or 7.5 µM for 12 to 24 h. Here is the method:
Both control and 6-OAP-treated MM cells were plated on glass slides by centrifugation using a cytospin, air-dried for 5 min at room temperature, and fixed with 4% paraformaldehyde for 15 min. After a brief washing in PBS with 100 mM glycine, slides were blocked with 5% bovine serum albumin (BSA; Sigma) and 0.3% Triton X-100 in PBS for 30 min at room temperature. Microtubules were detected with indicated antibodies diluted 1∶50 in 5% BSA in PBS overnight at 4°C and FITC or rhodamine-conjugated secondary antibodies (Santa Cruz) diluted 1∶200 in 5% BSA in PBS for 1.5 h at 37°C. Cells were then washed three times with PBS. Nuclei were stained with DAPI (Sigma).
Figure 2 6-OAP induces mitotic arrest in MM cells. (A) U266 cells were treated with 6-OAP at 7.5 µM for 0, 24, 48 h and imaged by Leica DMI 400B microscope. (B) U266 cells were treated with 6-OAP at indicated concentrations for 48 h. Cell cycle distribution was determined by flow cytometry. (C) MM.1S cells were treated with 5 µM 6-OAP for 48 h. Cell cycle distribution was determined by flow cytometry. (D) U266 cells were treated with 6-OAP at 5 to 7.5 µM for 24 h (left panel) or at 7.5 µM for 12 to 24 h (right panel). For immunofluorescence analysis of microtubules, cells was stained with an anti-α-tubulin antibody to visualize microtubules (green) and DAPI to counter stained DNA (blue) and observed by confocal microscopy. […]

The structures appear in SMILES notation.

For the molecule `CC=C(C)C(=O)OC1C2C(CC(C)C3C=CC(=O)C31C)OC(=O)C2C` (stereo not shown) [6-OAP, 6-O-angeloylplenolin], the “cellular microtubule network / mitotic spindle” value is reported as “cellular microtubules assembled to form mitotic spindle”.

(Values after PMC3130785, “Small Compound 6-O-Angeloylplenolin Induces Mitotic Arrest and Exhibits Therapeutic Potentials in Multiple Myeloma” (PLoS ONE, 2011).)
